Experimental data: ChEMBL document CHEMBL1201862, “PubChem BioAssay data set” (2004)
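Where inhibition never reached the appropriate level, the endpoint shown equals the highest concentration tested. Otherwise, values were interpolated linearly from a five-concentration, 48-hour dose response in 96-well plates. The concentration for 50% growth inhibition is given as GI50.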 Active and inactive are the calls of the source. Rule as the data show it: active = GI50 up to about 1.1 µM and inactive = higher.

Tests used:
Experiment in all cases: inhibition of tumour cell growth, NCI panel, 48 h
[1] = test system: HOP-62
[2] = test system: MDA-MB-435
[3] = test system: LOX IMVI
[4] = test system: K562
[5] = test system: HOP-92
[6] = test system: SK-MEL-5
[7] = test system: SNB-75
[8] = test system: RPMI-8226
[9] = test system: MDA-N
[10] = test system: HL-60
[11] = test system: COLO 205
[12] = test system: MCF7
[13] = test system: UACC-257
[14] = test system: SF-268
[15] = test system: NCI-H23
[16] = test system: UACC-62
[17] = test system: KM12
[18] = test system: Malme-3M
[19] = test system: CCRF-CEM
[20] = test system: SK-OV-3

| Structure (SMILES) | GI50 [1] | GI50 [2] | GI50 [3] | GI50 [4] | GI50 [5] | GI50 [6] | GI50 [7] | GI50 [8] | GI50 [9] | GI50 [10] | GI50 [11] | GI50 [12] | GI50 [13] | GI50 [14] | GI50 [15] | GI50 [16] | GI50 [17] | GI50 [18] | GI50 [19] | GI50 [20] |
| --- | --- | --- | --- | --- | --- | --- | --- | --- | --- | --- | --- | --- | --- | --- | --- | --- | --- | --- | --- | --- |
| CC[C@@H](C)[C@H]([C@H](CC(=O)N1CCC[C@@H]1[C@@H](OC)[C@H](C)C(=O)N[C@H](Cc1ccccc1)c1nccs1)OC)N(C)C(=O)[C@H](NC(=O)[C@@H](C(C)C)N(C)C)C(C)C | 0.000193 µM (active) | < 0.01 µM (active) | 0.000161 µM (active) | 6.93e-05 µM (active) | 0.00104 µM (active) | 2.51e-05 µM (active) | 0.000161 µM (active) | 0.000143 µM (active) | < 0.01 µM (active) | 0.0351 nM (active) | 7.13e-05 µM (active) | < 0.01 µM (active) | 0.000262 µM (active) | 0.00039 µM (active) | 0.000224 µM (active) | 0.000175 µM (active) | 1.67e-05 µM (active) | 0.000624 µM (active) |  |  |
| O=C1c2scnc2-c2nccc3c2c1nc1ccccc13 [KUANONIAMINE A] | 1.04 µM (active) | 0.191 µM (active) | 0.172 µM (active) | 0.682 µM (active) | 1.88 µM (inactive) | 0.0412 µM (active) | 0.94 µM (active) | 1.37 µM (inactive) | 0.196 µM (active) |  | 1.31 µM (inactive) | 0.299 µM (active) | 0.363 µM (active) | 1.78 µM (inactive) | 0.223 µM (active) | 0.38 µM (active) | 1.41 µM (inactive) | 0.684 µM (active) | 0.416 µM (active) | 2.54 µM (inactive) |
| O=C(O)/C=C/C(=O)N1Cc2cc3ccccc3nc2C1 | > 100 µM (inactive) | > 100 µM (inactive) | > 100 µM (inactive) | > 100 µM (inactive) | > 100 µM (inactive) | > 100 µM (inactive) | > 100 µM (inactive) | > 100 µM (inactive) | > 100 µM (inactive) | > 100000 nM (inactive) | > 100 µM (inactive) | > 100 µM (inactive) | > 100 µM (inactive) | > 100 µM (inactive) | > 100 µM (inactive) | > 100 µM (inactive) | > 100 µM (inactive) | > 100 µM (inactive) |  | > 100 µM (inactive) |
| COc1ccc(N/N=C/C2=CC(C)(C)C(C#N)(C#N)C(O)=C2C#N)cc1 | 43.6 µM (inactive) | 65.3 µM (inactive) | 31.4 µM (inactive) | 16.1 µM (inactive) | 17.1 µM (inactive) | 69.7 µM (inactive) | > 100 µM (inactive) | 35.6 µM (inactive) | 54.5 µM (inactive) | 37700 nM (inactive) | 22.5 µM (inactive) | 35.8 µM (inactive) | 25 µM (inactive) | 41 µM (inactive) | 35.9 µM (inactive) | 62.2 µM (inactive) | 32.5 µM (inactive) | 29.4 µM (inactive) | 35.5 µM (inactive) |  |
| CC(C)(C)c1cc(CC2C(=O)c3ccccc3C2=O)cc(C(C)(C)C)c1O | 2.54 µM (inactive) | 3.78 µM (inactive) | 3.81 µM (inactive) | 3.13 µM (inactive) | 0.272 µM (active) | 2.7 µM (inactive) |  | 0.764 µM (active) | 7.5 µM (inactive) | 2540 nM (inactive) | 3.6 µM (inactive) | 3.66 µM (inactive) | 3.21 µM (inactive) | 3.44 µM (inactive) | 4.22 µM (inactive) | 3.58 µM (inactive) | 3.51 µM (inactive) |  | 4.04 µM (inactive) | 2.44 µM (inactive) |
| O=C(O)c1cnc2cc(OCc3ccccc3)ccc2c1O | 20.7 µM (inactive) | 16.2 µM (inactive) |  | 23.6 µM (inactive) | 19.4 µM (inactive) | 17.7 µM (inactive) | 15.7 µM (inactive) | 24.8 µM (inactive) | 17 µM (inactive) | 256 nM (active) | 18.2 µM (inactive) | 20.1 µM (inactive) | 24 µM (inactive) | 16 µM (inactive) | 17.9 µM (inactive) | 16.8 µM (inactive) | 18.5 µM (inactive) | 13.8 µM (inactive) | 5.37 µM (inactive) | 22.1 µM (inactive) |
| OC/C=C/[C@H](OCc1ccccc1)[C@H](/C=C/CO)OCc1ccccc1 | 49.7 µM (inactive) | 40.1 µM (inactive) | 20.4 µM (inactive) | 24.8 µM (inactive) | 45.4 µM (inactive) | 27.9 µM (inactive) | 32.7 µM (inactive) | 23.1 µM (inactive) | 36 µM (inactive) |  | 59.3 µM (inactive) | 33.1 µM (inactive) | 75.2 µM (inactive) | 40.2 µM (inactive) | 47.8 µM (inactive) | 80 µM (inactive) | 41.8 µM (inactive) | > 100 µM (inactive) | 20.1 µM (inactive) | > 100 µM (inactive) |
